In general, inhibition refers to the share of the control response that was lost under treatment. For orientation: IC50 means the concentration that inhibits the measured activity by half.

One data set has as its target T1, KV10.1 (Homo sapiens, UniProt O95259).
T1 construct: expressed in transfected cells
T1 sequence (O95259 1-962 isoform O95259-2): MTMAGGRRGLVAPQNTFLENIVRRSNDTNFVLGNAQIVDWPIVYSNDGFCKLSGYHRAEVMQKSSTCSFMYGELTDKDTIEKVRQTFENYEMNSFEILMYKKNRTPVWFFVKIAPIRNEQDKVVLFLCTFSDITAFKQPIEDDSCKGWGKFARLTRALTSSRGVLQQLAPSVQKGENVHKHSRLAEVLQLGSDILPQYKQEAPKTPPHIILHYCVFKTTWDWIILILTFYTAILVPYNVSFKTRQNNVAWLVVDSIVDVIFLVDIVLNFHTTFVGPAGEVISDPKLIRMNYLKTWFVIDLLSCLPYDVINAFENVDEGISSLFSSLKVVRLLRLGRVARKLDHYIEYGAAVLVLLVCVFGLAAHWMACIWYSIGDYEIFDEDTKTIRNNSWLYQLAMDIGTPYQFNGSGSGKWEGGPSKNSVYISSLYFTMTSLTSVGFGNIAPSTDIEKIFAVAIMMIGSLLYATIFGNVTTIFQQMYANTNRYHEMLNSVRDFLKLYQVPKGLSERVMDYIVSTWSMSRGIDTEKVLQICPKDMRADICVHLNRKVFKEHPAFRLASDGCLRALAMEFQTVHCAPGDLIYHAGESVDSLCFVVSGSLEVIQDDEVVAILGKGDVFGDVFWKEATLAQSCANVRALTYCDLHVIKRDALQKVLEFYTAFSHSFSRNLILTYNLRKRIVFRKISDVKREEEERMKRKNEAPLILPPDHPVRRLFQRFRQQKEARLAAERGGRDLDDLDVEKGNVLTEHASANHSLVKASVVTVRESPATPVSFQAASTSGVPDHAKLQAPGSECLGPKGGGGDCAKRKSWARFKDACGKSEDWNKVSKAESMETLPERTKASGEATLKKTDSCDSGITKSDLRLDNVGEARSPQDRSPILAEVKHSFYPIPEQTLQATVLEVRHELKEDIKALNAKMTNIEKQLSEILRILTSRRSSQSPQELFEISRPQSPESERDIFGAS
The experiment in a line: Whole-cell patch clamp on HEK-293 cells stably expressing KV10.1. Type of data set: cell-based. The protocol: Whole-cell patch clamp experiments were performed on stably transfected HEK-293 cells. The cells were grown on fibronectin-coated glass coverslips in DMEM supplemented with 10% FCS and 300 µg/mL Zeocin. Experiments were performed at room temperature under continuous perfusion. The extracellular solution contained (mM) 160 NaCl, 2.5 KCl, 2 CaCl2, 1 MgCl2, 10 Hepes/NaOH, pH 7.4, 8 glucose. For the experiments determining conductance–voltage relationships, tail currents were made visible by substituting 60 mM NaCl by KCl ([…], 100 NaCl). Pipettes were pulled from #1 glass capillaries (WPI) to resistances of 1–3 MΩ when loaded with the intracellular solution (100 KCl, 45 N-methyl-D-glucamine, 10 1,2-bis(o-aminophenoxy)ethane-N,N,N′,N′-tetraacetic acid (BAPTA), 10 Hepes pH 7.35). Data acquisition was performed using a EPC10 Plus amplifier (HEKA Elektronik) and Patch Master software. Drug application was performed using an 8-channel fast solution exchanger (ALA). All compounds were dissolved in DMSO to a final concentration of 10 mM. 0.5% DMSO in extracellular solution served as control. KV10.1 currents were elicited by 500 ms depolarisations to +40 mV under continuous perfusion with the compound-containing or control solution. hERG current amplitudes were measured as the peak tail current during a 4 s repolarization to −40 mV after a depolarising pulse to +20 mV lasting for 2 s.
The nine selected in silico hits were tested by manual patch-clamp on a HEK293 cell line stably expressing KV10.1 [33] at a compound concentration of 50 μM (Table 1). Compound activity was tested by determining the current amplitude elicited by repetitive stimuli to +40 mV from a holding potential of −80 mV. […] The hit compound ZVS-08 represents a new structural class of KV10.1 inhibitors with diarylamine structure and has a unique structure among the acquired virtual screening hits. […] The most notable change from the purpurealidin analogues is the replacement of the hydrogen bond acceptor group of the amide bond with the oxygen atom of the nitro group of ZVS-08.
(In general: Patch clamp records ionic current or voltage across a cell membrane.)

Data set [1] has as its system Salmonella typhimurium strain TA98. The experiment in a line: Salmonella/microsomal reverse mutation (Ames) assay, TA98. The settings on record: for mutagenic response: TA98, 0.0158–0.158 mg/plate, −S9 and +S9; for induction factor (IF): IF ≥ 2 positive; for cytotoxic concentration to bacterial strain: TA98, −/+ S9 metabolic activation. Further details: key to bacterial background lawn: slightly reduced bacterial background; moderately reduced bacterial background; extremely reduced bacterial background; bacterial background is absent. The protocol: Mutagenicity of compounds ZVS-08 and 8 was tested with the Salmonella/microsomal reverse mutation (Ames) assay on Salmonella typhimurium strains TA98 and TA100 without and with external metabolic activation according to the OECD guidelines (OECD TG 471) with minor modifications. Briefly, 100 µL of ZVS-08 and 8 (0.158, 0.5, 1.58, 5, 15.8, and 50 mg/mL corresponding to the final concentration of 0.0158, 0.05, 0.158, 0.5, 1.58, and 5 mg/plate, respectively), […] bacterial culture of S. typhimurium (overnight culture at 37 °C), and […] of phosphate buffer (for assays without metabolic activation) or 10% S9 mix (for assays with metabolic activation) were added to 2 mL of molten top agar (supplemented with histidine/biotin, final concentration 0.05 mM), gently mixed and poured onto minimal agar plates. The number of His+ revertants was counted after 48 h (TA100) and 72 h (TA98) of incubation at 37 °C. Three plates were used per treatment point. The mutagenic potential of the compounds was expressed as an induction factor (IF), where IF = (number of revertants in the presence of the compound)/(number of revertants in solvent control). Additionally, each plate was checked for possible toxic effects of tested compounds. […] 4-nitroquinoline- N-oxide (4-NQNO; 0.25 μg/plate) for TA98 and sodium azide (NaN3; 0.25 μg/plate) for TA100 were used as positive controls without S9 metabolic activation, while benzo[a]pyrene (B[a]P; 2.5 μg/plate) was used as positive controls for both bacterial strains with S9 metabolic activation.

[2] abbreviates: HEK-293, 500 ms depolarisation to +40 mV, read-out: IC50 Kv10.1.

SMILES strings stand for the structures. Like-named read-outs stand apart in the source and are kept apart here.

In the case of `CN(C)CC(O)COc1ccc(Nc2ccc(C(F)(F)F)cc2[N+](=O)[O-])cc1` (stereo not drawn) [ZVS-08], at KV10.1 (HEK293, compound concentration 50 μM, stimuli to +40 mV, mean ± standard error, read-out: Effect on Kv10.1 (% Inhibition)), the inhibition at 50 µM worked out at 80.27 ± 0.63%. Moreover, the IC50 at KV10.1 (setting [2]) was determined as 3700 nM; at KV10.1 (same IC50 in presence and absence of 500 nM astemizole, end of 500 ms pulse to +40 mV, read-out: IC50 Kv10.1, competition with astemizole) it was 1690 nM; at KV10.1 (same IC50 in presence and absence of 1 µM mibefradil, end of 500 ms pulse to +40 mV, read-out: IC50 Kv10.1, competition with mibefradil), 1470 nM. Moreover, the “semi-maximal activation (conductance–voltage relationship)” value at KV10.1 (in the presence of 5 µM ZVS-08, 4.39 ± 1.9 mV in the absence) was −29.88 ± 1.8 mV. Also, the “mutagenic response” value in data set [1] was “no mutagenic response”. Besides, the “Average number of revertant colonies (mean ± SD)” value in data set [1] (TA98, +S9, 0.0158 mg/plate) was determined as 31.00 ± 3.61; in data set [1] (TA98, +S9, 0.05 mg/plate), 45.33 ± 8.62; in data set [1] (TA98, +S9, 0.158 mg/plate), 34.67 ± 14.05; in data set [1] (TA98, +S9, 0.5 mg/plate), 0; in data set [1] (TA98, +S9, 1.58 mg/plate) it was 0; in data set [1] (TA98, +S9, 5 mg/plate), 0. In addition, the “Average number of revertant colonies (mean ± SD)” value in data set [1] (TA98, -S9, 0.0158 mg/plate) was found to be 21.67 ± 4.51; in data set [1] (TA98, -S9, 0.05 mg/plate), 22.67 ± 8.08; in data set [1] (TA98, -S9, 0.158 mg/plate), 17.67 ± 3.79; in data set [1] (TA98, -S9, 0.5 mg/plate), 0; in data set [1] (TA98, -S9, 1.58 mg/plate) it was 0; in data set [1] (TA98, -S9, 5 mg/plate), 0. For the same molecule, the “induction factor (IF)” value in data set [1] (TA98, +S9, 0.0158 mg/plate) was found to be 0.85; in data set [1] (TA98, +S9, 0.05 mg/plate) it was 1.25; in data set [1] (TA98, +S9, 0.158 mg/plate) it was 0.95; in data set [1] (TA98, -S9, 0.0158 mg/plate), 0.86; in data set [1] (TA98, -S9, 0.05 mg/plate), 0.89; in data set [1] (TA98, -S9, 0.158 mg/plate), 0.70. Further, the bacterial background lawn entry in data set [1] (TA98, +S9, 0.158 mg/plate) is given as “a”; in data set [1] (TA98, +S9, 0.5 mg/plate), “b”; in data set [1] (TA98, +S9, 1.58 mg/plate), “d”; in data set [1] (TA98, +S9, 5 mg/plate), “d”; in data set [1] (TA98, -S9, 0.158 mg/plate), “a”; in data set [1] (TA98, -S9, 0.5 mg/plate) it was “c”. Besides, the bacterial background lawn entry in data set [1] (TA98, -S9, 1.58 mg/plate) is reported as “d”; in data set [1] (TA98, -S9, 5 mg/plate), “d”. Besides, the “cytotoxic concentration to bacterial strain” value in data set [1] is given as at least 0.5 mg/plate.
As for `O=[N+]([O-])c1cc(C(F)(F)F)ccc1Nc1ccc(OCC(O)CN2CCOCC2)cc1` (stereo not drawn) [Compound 8], the half-inhibitory concentration (IC50) at KV10.1 (setting [2]) came out at 1010 nM. Moreover, in data set [1], the “mutagenic response” value is listed as “no mutagenic response” and the “cytotoxic concentration to bacterial strain” value was at least 0.5 mg/plate.
